Two compounds from patent US8680146B2, “Organic compounds” (Novartis AG, priority 2008, dated 2014) can be followed below.

The data set can be described thus: Solubility study of FTY720 salts in various solvents. It is filed as physicochemical. The following applies: approx. values at 25° C. Here is the method:
The solubilities of various salts were assessed and are given in the table below (approx. values at 25° C., g/100 ml %): […]

On to `CCCCCCCCc1ccc(CCC(N)(CO)CO)cc1` [Free Base, 2-amino-2-[2-(4-octylphenyl)ethyl]propane-1,3-diol], for which the “Solubility in 0.1N HCl” value is recorded as above 2 g/100 ml %, the “Solubility in Acetone” value is 0.52 g/100 ml %, the “Solubility in Ethanol” value turned out to be 3.88 g/100 ml % and the “Solubility in Ethylacetate” value came to 0.45 g/100 ml %. Also, the “Solubility in Isopropanol” value was 2.03 g/100 ml %, the “Solubility in Octanol” value was 1-2 g/100 ml %, the “Solubility in Water” value is given as 0.018 g/100 ml % and the “Solubility in pH 6.88 phosphate buffer” value is listed as below 0.001 g/100 ml %.
Consider `CCCCCCCCc1ccc(CCC(N)(CO)CO)cc1.Cl` [Hydrochloride, 2-amino-2-[2-(4-octylphenyl)ethyl]propane-1,3-diol hydrochloride salt], for which the “Solubility in 0.1N HCl” value is reported as above 2 g/100 ml %, the “Solubility in Acetone” value was 0.08 g/100 ml %, the “Solubility in Ethanol” value is given as above 7.94 g/100 ml % and the “Solubility in Ethylacetate” value is on record as 0.03 g/100 ml %. Moreover, the “Solubility in Isopropanol” value was determined as 4.51 g/100 ml %, the “Solubility in Octanol” value is given as 1-2 g/100 ml %, the “Solubility in Water” value was above 10 g/100 ml % and the “Solubility in pH 6.88 phosphate buffer” value was below 0.001 g/100 ml %.
